The source of these data is patent US5185366A, “Method for treatment and prevention of diseases caused by enveloped viruses, including herpes simplex virus types 1 and 2 diseases, using 3,4-dihydroxy-2H-benzopyran-2H-one” (Ohio State University Research Foundation, priority 1990, dated 1993).

Like-named read-outs stand apart in the source and are kept apart here.

The nature of series [1]: Inhibition of cell growth (microscopic cell count). The format is cell-based, Buffalo green monkey. Particulars: monkey, bgm-70 cells, read-out: % Reduction of cell growth; for inhibition at 24 h, 0.4 µM / inhibition at 48 h, 0.4 µM: 0.4 μmol/L; for inhibition at 24 h, 1.6 µM / inhibition at 48 h, 1.6 µM: 1.6 μmol/L; for inhibition at 24 h, 2.5 µM / inhibition at 48 h, 2.5 µM: 2.5 μmol/L; for inhibition at 24 h, 10 µM / inhibition at 48 h, 10 µM: 10.0 μmol/L; for inhibition at 24 h, 50 µM / inhibition at 48 h, 50 µM: 50.0 μmol/L; for inhibition at 24 h, 100 µM / inhibition at 48 h, 100 µM: 100.0 μmol/L. On the procedure:
a MASHII cell harvester and placed in a scintillation counter to determin
incorporation of labelled compound and level of toxicity. BGM 70 cells ar
seeded at a concentration of […] per well in a 24well tissue cultur
plate. Cells are planted in 2 mL of growth medium with or without the tes
compound and are incubated at 37° C. for 38 hours. At 24 hours
medium is removed from onehalf of the plates and the cells are fixed and
stained with crystal violet. The remaining cultures are fixed and stained
^b BGM 70 cells are counted microscopically and comparisons are made.
Experiments are performed blindly by assigning each compound concentratio
a letter code. The code is broken after the cells are counted.
The effect of the compounds on the inhibition of cell growth is determined using BGM-70 cells grown in vitro. For this assay, BGM 70 cells are seeded at a concentration of approximately 70 cells per well in 24-well tissue culture plates. Cells are planted in 2 ml of growth medium with or without the test compound and are incubated at 37° C. for 48 hours. At 24 hours, cells from one half of the plates are fixed and stained with crystal violet. The remaining cultures are fixed and stained at 48 hours. Cells are counted microscopically and comparisons are made between non-treated (control) and treated cells.

Series [2] has as its system HSV-2. Kind of series: Extracellular activity, inhibition of plaque forming units, HSV-2. The settings on record: for inhibition at 0.4 µM: Human alphaherpesvirus 2, read-out: % Inhibition of PFU, EA (extracellular activity), HSV-2, 0.4 μmol/L; for inhibition at 1.6 µM: Human alphaherpesvirus 2, read-out: % Inhibition of PFU, EA (extracellular activity), HSV-2, 1.6 μmol/L; for inhibition at 2.5 µM: Human alphaherpesvirus 2, read-out: % Inhibition of PFU, EA (extracellular activity), HSV-2, 2.5 μmol/L; for inhibition at 10 µM: Human alphaherpesvirus 2, read-out: % Inhibition of PFU, EA (extracellular activity), HSV-2, 10.0 μmol/L.

The subject of series [3] is Buffalo green monkey kidney (BGM 70) cells. Nature of the series: [3H]-thymidine uptake cytotoxicity. Particulars: for inhibition at 0.4 µM / inhibition at 1.6 µM / inhibition at 2.5 µM / inhibition at 10 µM: Chlorocebus sabaeus, read-out: % Inhibition of [3H]-Thymidine Incorporated; for inhibition at 0.4 µM: 0.4 μmol/L; for inhibition at 1.6 µM: 1.6 μmol/L; for inhibition at 2.5 µM: 2.5 μmol/L; for inhibition at 10 µM: 10.0 μmol/L. The format is cell-based.

In series [4] the test system is HSV-2. Kind of series: Intracellular activity, inhibition of plaque forming units, HSV-2. The format is cell-based, Herpes simplex virus type 2. Particulars: read-out: % Inhibition of PFU, IA (intracellular activity); for inhibition at 10 µM: Human alphaherpesvirus 2, HSV-2, 10.0 μmol/L.
[5] abbreviates: at concentrations of 10 μM or less.

Turning to `O=C1OC2(CCCCC2)C(O)=C1O` [Compound 4, 4-spiro-2-hydroxytetronic acid], in series [1], the inhibition at 24 h, 0.4 µM worked out at 6 ± 1.1%; the inhibition at 24 h, 1.6 µM was 21 ± 12%; the inhibition at 24 h, 2.5 µM was 37 ± 9.4%; the inhibition at 24 h, 10 µM was 88 ± 6.1%. Also, in series [1], the inhibition at 48 h, 0.4 µM amounted to 8.4 ± 3.6%; the inhibition at 48 h, 1.6 µM was determined as 22 ± 6.1%; the inhibition at 48 h, 2.5 µM stood at 59 ± 12.4%; the inhibition at 48 h, 10 µM was determined as 86 ± 6.1%. Moreover, in the series on HSV-2 [2], the inhibition at 0.4 µM came out at 2 ± 1% and the inhibition at 1.6 µM came out at 1.8 ± 0.2%. In series [3] (setting [5]), the “toxicity ([3H]-thymidine uptake and/or cell growth)” value (“toxicity” for short) is on record as “display toxicity”.

Take `O=c1oc2cc3c(cc2c(O)c1O)OCO3` [Compound 8]: the inhibition at 2.5 µM in the series on HSV-2 [4] (Human alphaherpesvirus 2, HSV-2, 2.5 μmol/L) stood at 1 ± 0.2%. In the series with HSV-2 [4], the inhibition at 10 µM is 6.1 ± 1%. Moreover, in series [1], the inhibition at 24 h, 2.5 µM was determined as 2 ± 0.6%; the inhibition at 24 h, 10 µM amounted to 6.6 ± 1%; the inhibition at 24 h, 50 µM stood at 54 ± 2%; the inhibition at 24 h, 100 µM is 68 ± 7.6%. In addition, in series [1], the inhibition at 48 h, 2.5 µM stood at 4.2 ± 3.6%; the inhibition at 48 h, 10 µM came to 8.1 ± 2.1%; the inhibition at 48 h, 50 µM came to 52.2 ± 9.1%; the inhibition at 48 h, 100 µM was 71 ± 8.1%. Besides, in the series on HSV-2 [2], the inhibition at 2.5 µM was determined as 3 ± 1% and the inhibition at 10 µM stood at 16 ± 8%. Also, in series [3] (at 10 μM), the “toxicity” value is recorded as “no toxicity”.

With `O=c1oc2ccc(Cl)cc2c(O)c1O` [Compound 6], the inhibition at 0.4 µM in the series with HSV-2 [4] (Human alphaherpesvirus 2, HSV-2, 0.4 μmol/L) turned out to be 3 ± 1.1%. For the same molecule, the inhibition at 1.6 µM in the series on HSV-2 [4] (Human alphaherpesvirus 2, HSV-2, 1.6 μmol/L) amounted to 10 ± 4.6%. Moreover, in series [1], the inhibition at 24 h, 0.4 µM was determined as 21 ± 1%; the inhibition at 24 h, 1.6 µM was found to be 20 ± 6.2%; the inhibition at 24 h, 2.5 µM worked out at 56 ± 12%; the inhibition at 48 h, 0.4 µM is 12 ± 6.5%. In series [1], the inhibition at 48 h, 1.6 µM was determined as 30 ± 13.1% and the inhibition at 48 h, 2.5 µM was 58 ± 9.4%. Moreover, in the series with HSV-2 [2], the inhibition at 0.4 µM was 1.5 ± 0.8%, the inhibition at 1.6 µM is 1.2 ± 0.6% and the inhibition at 2.5 µM was determined as 0.4 ± 0.1%. In addition, in series [3] (24 h), the inhibition at 0.4 µM was determined as 11.1 ± 9.1%, the inhibition at 1.6 µM was 31.1 ± 5.8%, the inhibition at 2.5 µM worked out at 17.8 ± 2% and the inhibition at 10 µM amounted to 90 ± 1.4%. Also, in series [3] (48 h), the inhibition at 0.4 µM is 16.7 ± 8.4%, the inhibition at 1.6 µM was found to be 46.8 ± 9%, the inhibition at 2.5 µM is 20 ± 3.3% and the inhibition at 10 µM was 99.2 ± 0.8%. Further, in series [3] (72 h), the inhibition at 0.4 µM was found to be 31.8 ± 12%, the inhibition at 1.6 µM is 41.4 ± 14%, the inhibition at 2.5 µM was 17 ± 5% and the inhibition at 10 µM was 99.2 ± 0.8%. For the same molecule, in series [3] (setting [5]), the “toxicity” value is recorded as “display toxicity”.

On to `O=c1oc2ccc(O)cc2c(O)c1O` [Compound 7], for which the inhibition at 10 µM with HSV-2 [4] was 10 ± 3.2%. In series [1], the inhibition at 24 h, 0.4 µM turned out to be 14.2 ± 6.2%; the inhibition at 24 h, 2.5 µM came to 0.4%; the inhibition at 24 h, 10 µM was 1.6 ± 0.2%; the inhibition at 24 h, 50 µM came out at 18.4 ± 6.1%. Moreover, in series [1], the inhibition at 24 h, 100 µM came to 52 ± 8%; the inhibition at 48 h, 2.5 µM is 1 ± 0.4%; the inhibition at 48 h, 10 µM came out at 2 ± 1%; the inhibition at 48 h, 50 µM was 22.1 ± 8.4%. In addition, in series [1], the inhibition at 48 h, 100 µM amounted to 66 ± 11.1%. In addition, the inhibition at 10 µM in the series with HSV-2 [2] came to 86 ± 0.5%. Besides, in series [3] (24 h), the inhibition at 0.4 µM was determined as 13.6 ± 6.1%, the inhibition at 1.6 µM worked out at 28.6 ± 12%, the inhibition at 2.5 µM is 36.9 ± 8.6% and the inhibition at 10 µM was found to be 44.3 ± 9.1%. In series [3] (48 h), the inhibition at 0.4 µM is 13.9 ± 6.1%, the inhibition at 1.6 µM was determined as 31.7 ± 8.4%, the inhibition at 2.5 µM turned out to be 37.2 ± 5.1% and the inhibition at 10 µM stood at 46.6 ± 8%. In series [3] (72 h), the inhibition at 0.4 µM was found to be 13.9 ± 6.1%, the inhibition at 1.6 µM amounted to 31.6 ± 8.4%, the inhibition at 2.5 µM was 39.3 ± 13.1% and the inhibition at 10 µM stood at 48.4 ± 14%. The “toxicity” value in series [3] (setting [5]) is given as “display toxicity”.
